Laboratory results taken from a melting point compilation (Tetko et al.; mined from patent text by program, amines drawn as free bases though some values may be those of a salt).

melting point [°C]	SMILES
104	CCCCCCCCN1C(=O)c2c(Br)sc(Br)c2C1=O
114	COC(=O)c1nn(-c2ccc(Cl)cc2Cl)c(-c2ccc(Cl)cc2)c1CF
> 300	COc1cc2nc(-c3cc(C)c(OCCO)c(C)c3)[nH]c(=O)c2cc1OC
51 to 52	Cc1cnc(N)c(Br)n1
187	FC(F)(F)CNc1ccc2c(c1)N1CCCN=C1S2
314 to 316	Cc1ccc(-c2nc3c([nH]c(=O)c4ccccc43)s2)cc1
107 to 108	CCOCc1cc2ccc(OC)cc2o/c1=N\c1ccccc1
160 to 162	COc1c(C)cnc(Cn2cc(C#CCCCN3CCN(C)CC3)c3c(Cl)nc(N)nc32)c1C
122 to 124	C=CCc1cc(C(C)=O)c(O)cc1OCCCCCC(N)=O
170	CC(C)(C)OC(=O)NC1C(=O)N2C(C(=O)OCc3ccc([N+](=O)[O-])cc3)=C(S)SCC12 (mixture of isomers)
201 to 202	CC(=O)Nc1ccc(C(C)=O)c(C)n1
185 to 187	Cc1ccc([N+](=O)[O-])cc1-c1cn(C)cc(-c2ccccc2)c1=O
55 to 60	COC(=O)C[C@H](NC(=O)OCc1ccccc1)C(=O)O
77 to 78	CCCCCCCC(=O)NCCCCCCO
> 290	CCNC(=N)N(C(=N)NCC)c1cc(C(C)(C)C)c2c(c1)C(C)(C)CO2
123 to 125	COc1ccc(C(=O)CC2CSCCC2=O)cc1 (stereo not given)
137 to 138	Cc1cccc(-c2nc3cccnn3c2-c2ccnc(NCC3CCCO3)c2)c1 (stereo not given)
224 to 225	CC(C)(C)c1cc(CCC(=O)NNC(=O)C=Cc2ccccc2)cc(C(C)(C)C)c1O
231 to 233	O=c1c2cc(F)c(N3CCCC3)nc2n(-c2ccc(C(F)(F)F)cc2)c(=O)n1OCc1ccccc1
124 to 126	CCCCCCCCOc1cc2cc(C(=O)OC)c(C(=O)OC)c(-c3ccncc3)c2cc1OC
130	CC(c1cccc(C(=O)c2ccccc2)c1)C(O)CC#N (stereo not given)
227 to 230	COCc1cccc2oc(C(=O)Nc3ccc(-c4ccc(S(=O)(=O)NC(C(=O)O)C(C)C)cc4)cc3)c(C)c12 (stereo not given)
232 to 234	CC(C)(C)CC(=O)NCc1ccc2c(c1)C(=O)N(C1CCC(=O)NC1=O)C2=O (stereo not given)
104 to 105	COc1ccc(C2=NN(CCCCCCNC(=O)c3ccccc3C(N)=O)C(=O)[C@H]3CC=CC[C@@H]23)cc1OC (relative stereo)

melting point [°C]	SMILES
150	O=C(Nc1ccccc1)Nc1cccc(-c2ccc(CC34CCCN3C(=O)N(c3cc(Cl)cc(Cl)c3)C4=O)cc2)c1 (stereo not given)
124 to 126	CN(C(=S)Nc1ccc(Cl)cc1Cl)c1cccc(C(=CCCCC(=O)O)c2cccnc2)c1
158 to 160	O=C(O)C1Cc2ccc(Cl)cc2NC1=O (stereo not given)
145	CC(C)[C@H](NC(=O)N(C)Cc1ccccn1)C(=O)O
244	O=[N+]([O-])c1cc2c(Nc3ccc(F)c(Cl)c3)ncnc2cc1O[C@@H]1CCOC1
120	COc1ccc(C=O)cc1C
186 to 188	COc1ccc(Br)c(Cl)c1C(=O)O
275 to 280	Cc1c(Cc2cccc3ccccc23)c(=O)oc2cc(O)cc(O)c12
130 to 135	CC1(C)C(=O)Nc2cc3[nH]c(CCC(=O)O)nc3cc21
168 to 171	COC(=O)C(Cc1ccc(OCc2nc3ccc(OC)cc3n2C)cc1)NS(C)(=O)=O (stereo not given)
269	Cc1ccc(N2C(=O)C(O)=C(C(=O)c3ccc(OC(F)(F)F)cc3)C2c2ccc(C(C)C)cc2)nn1 (stereo not given)
73 to 75.5	Cc1cccc(SCCC(=O)O)c1
226 to 228	COC(=O)c1ccc(Cn2cc(/C=C/C(=O)N3CCCC3)c3ccc(/C=C/C(=O)N4CCCC4)cc32)c(OC)c1
100	COC1(c2cc(F)cc(F)c2)CCOCC1
140 to 142	CC1(C)CC(=O)C(SCc2ccc([N+](=O)[O-])cc2)=C(O)C1
201 to 203	CSc1cc2nnc(C)n2c(C)n1
145 to 146	Cc1c(C)c2c(c(C)c1NC(=O)NCCCCO)C(c1ccc(C(C)C)cc1)CO2 (stereo not given)
221 to 223	CC1(C)C(=O)NCCN1C(=O)C(Cc1ccccc1)N1C(=O)c2ccccc2C1=O (stereo not given)
139 to 140	CNc1c(S(=O)(=O)C(F)(F)F)c(C)nn1-c1c(Cl)cc(C(F)(F)F)cc1Cl
250 to 252	CC(=O)Nc1nn(C)c2nc3n(c(=O)c12)CCS3
94 to 97	CCCCn1c(C)c(C)cc(N)c1=O
80 to 82	Cc1ccc(C(=O)c2ccn(C)c2C)cc1
192 to 194	O=C1Cc2c(cccc2-c2ccccc2)N1
184	N#Cc1cccc(C2=Nc3ccc(C#CC4=CCNCC4)cc3NC(=O)C2)c1

melting point [°C]	SMILES
180 to 181	Cc1c(NC(=O)CC(C)(C)C)c(C)c2c(c1-c1ccc(N(C)C)cc1)OCC2c1ccc(C(C)C)cc1 (stereo not given)
238 to 239	O=C(O)c1cnc2ccoc2c1
290	FC(F)(F)c1cc(-c2ccc(Cl)cc2)nc2c(-c3ccncc3)ncn12
324	O=C(Oc1ccc2cc3cc(OC(=O)c4ccc(O)cc4)ccc3cc2c1)c1ccc(O)cc1
201 to 204	COC(=O)C1=C(C)NC2=C(C(=O)CN(Cc3ccccc3)C2)C1c1ccccc1C (stereo not given)
196 to 198	Cc1nc(Cn2nc(-c3c(-c4ccccc4)nn4ccccc34)ccc2=O)cs1
113 to 120	COc1cc(OCc2ccccn2)ccc1/C=C/c1cc(/C=C/c2ccc3[nH]nnc3c2)n[nH]1
140 to 141	COC(=O)c1ccc(NC(=O)CCc2c(C)noc2-c2ccccc2)cc1
69 to 70	COC(=O)c1cc(Cl)c2c(c1Cl)OC(c1ccccc1)(c1ccccc1)O2
209 to 211	CC1(C)CC(=S)Nc2ccc(-c3cccc(F)c3)cc21
174	NC(=O)CC12CC3CC(CC(C3)C1)C2
208 to 211	CC(CC=CC=CCC(=O)O)C1CCC2C3CCC4CC(O)CCC4(C)C3CC(O)C12C (stereo not given)
150 to 152	CC(O)=C(C(=O)OC(c1ccccc1)c1ccccc1)N1C(=O)C(NC(=O)COc2ccccc2)C1SS(=O)(=O)c1ccc(C)cc1 (stereo not given)
71.5 to 73	OCCCc1ccccc1N(Cc1ccccc1)Cc1ccccc1
74 to 78	CC(=O)N(C(=NC1CCCCC1)ON=C(C)C)C1CCCCC1
78	CCCc1cc(O)c(C#N)s1
107 to 108	CCOC(=O)c1cc2c(s1)-c1c(SC)sc(C(=O)OCC)c1CC2
124 to 125	COc1ncnc2c1ncn2[C@H](C)[C@](O)(Cn1cncn1)c1ccc(F)cc1F
128 to 129	CCCCCCCCCCCCCCCCCCNC(=O)OCC(CN)NC(=O)OC (stereo not given)
180 to 182	CC(C)C1c2onc(-c3ccc(Cl)cc3)c2CCC1C(=O)O (stereo not given)
52 to 53	COC1=C(OC)C(=O)C(CCCCC#CCCCCO)=C(C)C1=O
128 to 130	COc1ccc(Cn2nnnc2C(O)c2ccccc2Cl)cc1 (racemic)
125 to 130	Cn1cccc1-c1nsc2ccc(-n3c(=O)cc(C(F)(F)F)[nH]c3=O)cc12
191 to 192	COc1ccc(C(=O)Nc2ccc(Cl)cc2)cc1N

melting point [°C]	SMILES
232 to 235	CCCNC(=O)C(C)=Cc1ccc2c(c1)c(Cc1ccc(C(=O)O)cc1OC)cn2CC(=O)N(C)C
187 to 188	CNS(=O)(=O)c1cc2c(c(C(=O)NCC3CCCN3C)c1)OCCO2 (stereo not given)
106 to 109	O=C(OC(Cn1ccnc1)CS(=O)(=O)c1ccccc1)c1ccc(Cl)cc1Cl (stereo not given)
55 to 57	CCOC(=O)[C@H](COCc1ccccc1)NC(=O)C(C)(C)NC(=O)[C@@H](SC(C)=O)C(C)C
139 to 140	CCc1nc2c(-c3ccc(OC)cc3Cl)ncnc2n1C(C1CC1)C1CC1
184	COC(=O)c1sccc1Nc1ccccc1[N+](=O)[O-]
140 to 145	COC(=O)C1CCC2C3CCC4CC5OC5CC4(C)C3C(=O)CC12C (stereo not given)
138 to 143	Cc1cc2c(=O)n(CCN(Cc3ccc4c(c3)NC(=O)C(C)(C)C(=O)N4CC3CC3)Cc3cccnc3C)ccc2o1
153	Nc1cc(=O)n(Cc2ccccc2Cl)[nH]1
204	Cn1nccc1CCS(=O)(=O)Cc1ccc(OCc2coc(C=Cc3ccc(C(F)(F)F)cc3)n2)cc1
212 to 213	O=C1Nc2cc(Cl)ccc2Nc2cscc21
90 to 92	CC(CN1CCCS1(=O)=O)c1ccncc1 (stereo not given)
64 to 65	O=C(O)CCc1ccc(OCCSCCO)cc1
208 to 209	CCNc1cccnc1N1CCN(C(=O)c2ccc(C(=O)O)cc2)CC1
148 to 150	O=C(c1ccc2nonc2c1)N1CCOCC1
127 to 128	N#Cc1ccc2c(c1)C(=O)c1cccn1CC2
161 to 162	COc1cccc(NC(=O)NC(C(C)C)C2CCN(Cc3ccc(Cl)c(Cl)c3)CC2)c1 (racemic)
121 to 131	COc1ccccc1N1CCN(C[C@@H](CC2CCCCC2)NC(=O)C2CCCCC2)CC1
174 to 175	CCCCN1CCC(NS(=O)(=O)c2ccc(NC(C)=O)cc2)CC1
134 to 136	COc1ccc(COCc2nc(C(C)C)c(Sc3cc(Cl)cc(Cl)c3)n2CC(F)(F)F)cc1
96 to 98	C/C(=N\OCCBr)[C@H]1CC[C@H]2[C@@H]3CCC4=CC(=O)CC[C@]4(C)[C@H]3CC[C@]12C
246 to 248	Nc1ccc(S(=O)(=O)c2cc(-c3ccccc3F)nc(N3CCCC3)c2)cc1

SMILES	melting point [°C]
COC(=O)c1[nH]c(=O)n(C(=O)NCCCN2CCC(C(=O)OC)(c3ccccc3)CC2)c1-c1ccc(F)c(F)c1	134 to 136
CC12CC(O)C3=C4CCC(=O)C=C4CCC3C1C(O)CC2=O (stereo not given)	146
CN1Cc2c(C#N)ncn2-c2cccc(Br)c2C1=O	226 to 228
CC(=Cc1cccc(SC(F)(F)F)c1)[N+](=O)[O-]	48
CN1CCC(c2c[nH]c3ccc(OC4CCCCC4)cc23)CC1	192 to 194
O=C(NC(c1ccccc1)c1ccccc1)N1CCC(C(=O)O)(c2ccccc2)CC1	208
